Measurements from ChEMBL document CHEMBL3885861, “Open TG-GATES”.

Species: Rattus norvegicus
Experiment: Open TG-GATES - Regimen: Daily Repeat
Assay type: toxicity, organism-based, Sprague-Dawley
Parameters: regimen Daily Repeat, gender Male, age 6 weeks
Details: in vivo, po, route gavage; for TG / TP / gamma-GTP / ALP / ALT / CRE / DBIL / GLC / IP / K / LDH / Na / PL / RALB / TBIL / TC / BUN: tissue Plasma
[1] = 60 mg/kg, […], dose level Low, time 28 day
[2] = 200 mg/kg, 72 h, dose level Middle, time 3 day
[3] = 200 mg/kg, 72 h, tissue Blood, dose level Middle, time 3 day
[4] = 200 mg/kg, […], dose level Middle, time 7 day
[5] = 200 mg/kg, […], dose level Middle, time 14 day
[6] = 200 mg/kg, […], dose level Middle, time 28 day
[7] = 200 mg/kg, […], tissue Blood, dose level Middle, time 7 day
[8] = 200 mg/kg, […], tissue Blood, dose level Middle, time 14 day
[9] = 200 mg/kg, […], tissue Blood, dose level Middle, time 28 day
[10] = 600 mg/kg, 72 h, dose level High, time 3 day
[11] = 600 mg/kg, 72 h, tissue Blood, dose level High, time 3 day
[12] = 600 mg/kg, […], dose level High, time 7 day
[13] = 600 mg/kg, […], dose level High, time 14 day
[14] = 600 mg/kg, […], dose level High, time 28 day
[15] = 600 mg/kg, […], tissue Blood, dose level High, time 7 day
[16] = 600 mg/kg, […], tissue Blood, dose level High, time 14 day
[17] = 600 mg/kg, […], tissue Blood, dose level High, time 28 day

CCN(CC)C(=S)SSC(=S)N(CC)CC
TG [1]: 67.8 mg/dL
TP [1]: 5.9 g/dL
gamma-GTP [1]: 1.8 IU/L
TERMINAL_BW [2]: 218.6 g
APTT [3]: 22.4 s
Bas [3]: 0%
Eos [3]: 1%
Fbg [3]: 344.8 mg/dL
Hb [3]: 12.4 g/dL
Ht [3]: 37.6%
MCH [3]: 19.7 pg
MCHC [3]: 32.9%
MCV [3]: 60 fL
Mono [3]: 2.2%
PT [3]: 15.7 s
Plat [3]: 109.9 x10_4/uL
RBC [3]: 627.2 x10_4/ul
Ret [3]: 4.6%
WBC [3]: 80.4 x10_2/uL
ALP [2]: 878 IU/L
ALT [2]: 45 IU/L
CRE [2]: 0.2 mg/dL
DBIL [2]: 0.008 mg/dL
GLC [2]: 170.6 mg/dL
IP [2]: 7 mg/dL
K [2]: 4.1 meq/L
LDH [2]: 195.4 IU/L
Na [2]: 144 meq/L
PL [2]: 189.4 mg/dL
RALB [2]: 3.1 g/dL
TBIL [2]: 0.014 mg/dL
TC [2]: 117.8 mg/dL
TG [2]: 54.8 mg/dL
TP [2]: 5.6 g/dL
gamma-GTP [2]: 1.2 IU/L
TERMINAL_BW [4]: 250.3 g
TERMINAL_BW [5]: 290.7 g
TERMINAL_BW [6]: 357.8 g
APTT [7]: 20.7 s
Bas [7]: 0%
Eos [7]: 1%
Fbg [7]: 349.8 mg/dL
Hb [7]: 12.3 g/dL
Ht [7]: 37.8%
MCH [7]: 20.2 pg
MCHC [7]: 32.7%
MCV [7]: 61.8 fL
Mono [7]: 2.4%
PT [7]: 16.3 s
Plat [7]: 130.6 x10_4/uL
RBC [7]: 611 x10_4/ul
Ret [7]: 7.1%
WBC [7]: 101.3 x10_2/uL
APTT [8]: 23.3 s
Bas [8]: 0%
Eos [8]: 1%
Fbg [8]: 348.6 mg/dL
Hb [8]: 13.6 g/dL
Ht [8]: 39.4%
MCH [8]: 20 pg
MCHC [8]: 34.5%
MCV [8]: 58 fL
Mono [8]: 2.4%
PT [8]: 16.1 s
RBC [8]: 679.6 x10_4/ul
Ret [8]: 5.2%
WBC [8]: 99.9 x10_2/uL
APTT [9]: 24.5 s
Bas [9]: 0%
Eos [9]: 1.4%
Fbg [9]: 385.6 mg/dL
Hb [9]: 14.2 g/dL
Ht [9]: 40.9%
MCH [9]: 19 pg
MCHC [9]: 34.8%
MCV [9]: 54.7 fL
Mono [9]: 2%
Neu [9]: 16%
PT [9]: 16.3 s
Plat [9]: 100.5 x10_4/uL
RBC [9]: 748.8 x10_4/ul
Ret [9]: 4%
WBC [9]: 118.2 x10_2/uL
ALP [4]: 989.4 IU/L
ALT [4]: 46 IU/L
BUN [4]: 18.2 mg/dL
CRE [4]: 0.2 mg/dL
DBIL [4]: 0 mg/dL
GLC [4]: 173.2 mg/dL
IP [4]: 6.6 mg/dL
K [4]: 4.3 meq/L
LDH [4]: 195 IU/L
Na [4]: 143 meq/L
PL [4]: 171 mg/dL
RALB [4]: 3.1 g/dL
TBIL [4]: 0.006 mg/dL
TG [4]: 38.2 mg/dL
TP [4]: 5.8 g/dL
gamma-GTP [4]: 1.6 IU/L
ALP [5]: 989.6 IU/L
ALT [5]: 38.8 IU/L
BUN [5]: 22.2 mg/dL
CRE [5]: 0.2 mg/dL
DBIL [5]: 0 mg/dL
GLC [5]: 172.6 mg/dL
IP [5]: 6.4 mg/dL
K [5]: 4.2 meq/L
LDH [5]: 126.6 IU/L
Na [5]: 142 meq/L
PL [5]: 181 mg/dL
RALB [5]: 3.2 g/dL
TBIL [5]: 0.014 mg/dL
TC [5]: 104 mg/dL
TG [5]: 41.2 mg/dL
TP [5]: 6 g/dL
gamma-GTP [5]: 3 IU/L
ALP [6]: 809.6 IU/L
ALT [6]: 37.2 IU/L
BUN [6]: 21.2 mg/dL
CRE [6]: 0.2 mg/dL
DBIL [6]: 0 mg/dL
GLC [6]: 165.8 mg/dL
IP [6]: 6 mg/dL
K [6]: 4 meq/L
LDH [6]: 132 IU/L
Na [6]: 142 meq/L
PL [6]: 188 mg/dL
RALB [6]: 3.3 g/dL
TBIL [6]: 0.026 mg/dL
TC [6]: 118 mg/dL
TG [6]: 38 mg/dL
TP [6]: 6.4 g/dL
gamma-GTP [6]: 2.4 IU/L
TERMINAL_BW [10]: 211.3 g
APTT [11]: 23.3 s
Bas [11]: 0%
Eos [11]: 0.6%
Fbg [11]: 405.6 mg/dL
Hb [11]: 12.6 g/dL
Ht [11]: 37.8%
MCH [11]: 20.2 pg
MCHC [11]: 33.3%
MCV [11]: 60.9 fL
Mono [11]: 2.4%
PT [11]: 15.5 s
Plat [11]: 118.3 x10_4/uL
RBC [11]: 623 x10_4/ul
Ret [11]: 4.4%
WBC [11]: 61.8 x10_2/uL
ALP [10]: 963 IU/L
ALT [10]: 47.6 IU/L
CRE [10]: 0.1 mg/dL
DBIL [10]: 0.02 mg/dL
GLC [10]: 162 mg/dL
IP [10]: 7.7 mg/dL
K [10]: 3.7 meq/L
LDH [10]: 341.6 IU/L
Na [10]: 144 meq/L
PL [10]: 212.8 mg/dL
RALB [10]: 3 g/dL
TBIL [10]: 0.018 mg/dL
TC [10]: 147.4 mg/dL
TG [10]: 29.4 mg/dL
TP [10]: 5.8 g/dL
gamma-GTP [10]: 1.4 IU/L
TERMINAL_BW [12]: 217.6 g
TERMINAL_BW [13]: 270 g
TERMINAL_BW [14]: 304.2 g
APTT [15]: 25.8 s
Bas [15]: 0%
Eos [15]: 0.5%
Fbg [15]: 408.2 mg/dL
Hb [15]: 13.4 g/dL
Ht [15]: 40%
Lym [15]: 64.8%
MCH [15]: 19.7 pg
MCHC [15]: 33.5%
MCV [15]: 58.8 fL
Mono [15]: 5%
Neu [15]: 28.8%
PT [15]: 18.8 s
Plat [15]: 130.8 x10_4/uL
RBC [15]: 681.5 x10_4/ul
Ret [15]: 4.8%
WBC [15]: 88.4 x10_2/uL
APTT [16]: 22.8 s
Bas [16]: 0%
Eos [16]: 1%
Fbg [16]: 377.4 mg/dL
Hb [16]: 13.4 g/dL
Ht [16]: 38.3%
MCH [16]: 19.6 pg
MCHC [16]: 35%
MCV [16]: 55.9 fL
Mono [16]: 2.4%
Neu [16]: 22.6%
PT [16]: 16.8 s
RBC [16]: 683.8 x10_4/ul
Ret [16]: 5.7%
WBC [16]: 85.1 x10_2/uL
APTT [17]: 20.8 s
Bas [17]: 0%
Eos [17]: 1%
Fbg [17]: 382.2 mg/dL
Hb [17]: 13.4 g/dL
Ht [17]: 38.9%
MCH [17]: 18.9 pg
MCHC [17]: 34.5%
MCV [17]: 54.9 fL
Mono [17]: 2.6%
Neu [17]: 17.8%
PT [17]: 17.4 s
Plat [17]: 99.3 x10_4/uL
RBC [17]: 708.2 x10_4/ul
Ret [17]: 4.8%
WBC [17]: 98.6 x10_2/uL
ALP [12]: 563.5 IU/L
ALT [12]: 41.8 IU/L
BUN [12]: 17.5 mg/dL
CRE [12]: 0.2 mg/dL
DBIL [12]: 0.0275 mg/dL
GLC [12]: 147.5 mg/dL
IP [12]: 7.2 mg/dL
K [12]: 4.3 meq/L
LDH [12]: 354.2 IU/L
Na [12]: 145.2 meq/L
PL [12]: 201 mg/dL
RALB [12]: 2.9 g/dL
TBIL [12]: 0.025 mg/dL
TG [12]: 16.5 mg/dL
TP [12]: 5.8 g/dL
gamma-GTP [12]: 2.5 IU/L
ALP [13]: 1017.2 IU/L
ALT [13]: 34 IU/L
BUN [13]: 21 mg/dL
CRE [13]: 0.2 mg/dL
DBIL [13]: 0.004 mg/dL
GLC [13]: 161.2 mg/dL
IP [13]: 6.9 mg/dL
K [13]: 4.1 meq/L
LDH [13]: 173.8 IU/L
Na [13]: 142.8 meq/L
PL [13]: 178.8 mg/dL
RALB [13]: 3.3 g/dL
TBIL [13]: 0.024 mg/dL
TC [13]: 109.4 mg/dL
TG [13]: 29.2 mg/dL
TP [13]: 6.2 g/dL
gamma-GTP [13]: 2.8 IU/L
ALP [14]: 651.8 IU/L
ALT [14]: 34.2 IU/L
BUN [14]: 19.6 mg/dL
CRE [14]: 0.2 mg/dL
DBIL [14]: 0.014 mg/dL
GLC [14]: 156.8 mg/dL
IP [14]: 6.1 mg/dL
K [14]: 3.8 meq/L
LDH [14]: 159.2 IU/L
Na [14]: 143 meq/L
PL [14]: 166.6 mg/dL
RALB [14]: 3.2 g/dL
TBIL [14]: 0.044 mg/dL
TC [14]: 112.4 mg/dL
TG [14]: 16.2 mg/dL
TP [14]: 6.4 g/dL
gamma-GTP [14]: 2.8 IU/L
